Biological target: T1, human histamine H3 receptor (Homo sapiens, UniProt Q9Y5N1, E19D)
T1 construct: achieved by transfection of full-length human histamine H3 receptor cDNA into a mammalian host cell; expressed in transfected cells; membrane preparation
Assay: Saturation binding of [3H]-N-alpha-methylhistamine to membranes of pH3R expressing L cells
Conditions: recombinant receptor in L cells, FIG. 7, radioligand 0.01 nM-25 nM, room temperature 45 minutes
Description: Binding Assay on Recombinant Human Histamine H3 Receptor L cells that inhibited forskolin-stimulated cAMP accumulation as described above were grown in 150 cm2 tissue culture dishes. Cells were washed with saline solution, scraped with a cell scraper and collected by centrifugation (1000 rpm, 5 min). L cells expressing human histamine H3 receptor bound ^3H—N-alpha-methylhistamine with high affinity (FIG. 7). Cell membranes were prepared by homogenization of the cell pellet in 20 mM TRIS-HCl with a polytron tissue homogenizer for 10 seconds at high speed. Homogenate was centrifuged at 1000 rpm for 5 minutes at 4° C. The supernatant was then collected and centrifuged at 20,000×g for 25 minutes at 4° C. The final pellet is resuspended in 50 mM Tris-HCl. Cell membranes were incubated with ^3H—N-alpha-methylhistamine (0.01 nM–25 nM) in the presence or absence of excess histamine (10000 nM). Incubation was done at room temperature for 45 minutes. Membranes were harvested by rapid filtration over Whatman GF/C filters and washed 4 times with ice cold 50 mM TRIS HCl. Filters were then dried, mixed with scintillant and counted for radioactivity. […]

T1 sequence (Q9Y5N1 whole entry E19D): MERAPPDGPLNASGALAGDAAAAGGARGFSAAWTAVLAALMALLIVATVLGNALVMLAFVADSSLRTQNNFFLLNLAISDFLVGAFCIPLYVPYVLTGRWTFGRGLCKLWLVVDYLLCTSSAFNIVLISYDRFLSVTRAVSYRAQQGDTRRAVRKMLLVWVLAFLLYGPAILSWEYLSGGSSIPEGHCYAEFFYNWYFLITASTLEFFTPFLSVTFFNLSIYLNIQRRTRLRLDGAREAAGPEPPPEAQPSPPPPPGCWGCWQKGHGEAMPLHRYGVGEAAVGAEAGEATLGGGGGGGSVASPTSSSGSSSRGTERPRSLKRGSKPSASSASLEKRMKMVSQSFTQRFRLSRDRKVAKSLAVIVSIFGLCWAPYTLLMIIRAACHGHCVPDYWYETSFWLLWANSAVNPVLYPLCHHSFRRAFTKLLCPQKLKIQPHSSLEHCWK

Q: How did the “affinity of binding to L cells expressing human histamine H3 receptor” value turn out when [3H]CNCCc1cnc[nH]1 [^3H—N-alpha-methylhistamine] was run?
A: high affinity

Reference: patent US7179604B2, “Methods of use of DNA encoding a human histamine receptor of the H3 subtype” (Ortho-McNeil Pharmaceutical, Inc., priority 1998, dated 2007)
